Data: publication PMC3773436 (Evidence-based Complementary and Alternative Medicine : eCAM, 2013)
Entries after “also recorded” stand apart in the source; their conditions may differ. Like-named read-outs stand apart in the source and are kept apart here.

Experiments:
Porcine kidney DPP-IV [1] = target: T1, Porcine kidney DPP-IV (Sus scrofa, UniProt P22411); test: DPP-IV Glo Protease Assay (luminescence), DPP-IV inhibition; type: biochemical; settings: for DPP-IV inhibitory activity (in words): tested at 0.5, 5, 20 and 40 μg/mL, data not shown
T1 construct: purchased Sigma-Aldrich; host or cells: porcine kidney (tissue-derived, as named)
T1 sequence (P22411 whole entry): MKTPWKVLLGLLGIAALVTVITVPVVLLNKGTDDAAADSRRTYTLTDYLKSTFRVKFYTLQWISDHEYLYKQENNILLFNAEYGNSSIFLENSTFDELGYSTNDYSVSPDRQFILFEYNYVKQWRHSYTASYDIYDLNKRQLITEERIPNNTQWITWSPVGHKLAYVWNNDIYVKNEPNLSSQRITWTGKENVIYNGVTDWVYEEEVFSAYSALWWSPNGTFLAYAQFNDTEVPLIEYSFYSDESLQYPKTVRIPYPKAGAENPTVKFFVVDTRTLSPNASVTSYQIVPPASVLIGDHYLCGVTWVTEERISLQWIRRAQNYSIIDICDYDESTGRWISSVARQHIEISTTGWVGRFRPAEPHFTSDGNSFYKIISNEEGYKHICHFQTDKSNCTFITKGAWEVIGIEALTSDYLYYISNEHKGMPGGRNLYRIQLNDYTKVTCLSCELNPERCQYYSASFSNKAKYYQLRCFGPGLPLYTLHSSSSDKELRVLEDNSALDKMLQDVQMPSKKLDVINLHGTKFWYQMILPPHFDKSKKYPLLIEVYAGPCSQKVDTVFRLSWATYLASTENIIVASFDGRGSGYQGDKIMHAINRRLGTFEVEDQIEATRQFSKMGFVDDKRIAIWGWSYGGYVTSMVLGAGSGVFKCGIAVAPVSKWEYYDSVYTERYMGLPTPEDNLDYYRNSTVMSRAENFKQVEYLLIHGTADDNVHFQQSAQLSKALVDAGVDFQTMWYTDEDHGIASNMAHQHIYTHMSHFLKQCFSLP
Excerpt: All solvents used for phenolic extraction were HPLC-grade and were purchased from Fisher Scientific (Pittsburg, PA). Amberlite XAD-7 was purchased from Sigma-Aldrich (St. Louis, MO). Sephadex LH-20 was purchased from GE Life Sciences (Buckinghamshire, UK). […] DPP-IV Glo^TM Protease Assay kits were purchased from Promega (Madison, WI). […] All other reagents were of analytical grade.
Measurement of the activity and potential inhibition of DPP-IV, a type II membrane glycoprotein, was done using the DPP-IV Glo^TM Protease Assay following the manufacture's protocol (Promega, Madison, WI). Briefly, 50 μL of DPP-IV Glo^TM reagent was added to a white-walled 96-well plate containing 50 μL of blank, positive control, or treatment. The blank contained the vehicle only while positive control contained the vehicle and purified DPP-IV enzyme (at a final concentration of 1 ng/mL). […] The content of the wells was gently mixed using an Ultra Microplate Reader (Biotek Instruments, Winooski, VT) at medium intensity for 4 s. DPP-IV cleavage of the provided Gly-Pro-amino methyl coumarin (AMC) substrate generated a luminescent signal by luciferase reaction, with the amount of DPP-IV enzyme available to bind Gly-Pro-AMC proportional to relative light units (RLU) produced. This signal in RLU was measured after 30 min in the Ultra Microplate Reader and then compared to the blank. […] IC50 values were calculated based on the molecular mass of each compound or C3G as the equivalent for ANC-enriched fractions.
Data were expressed as means of independent duplicates with at least three replicates. […] Statistical analysis was conducted using the proc GLM procedures of SAS version 9.3 (SAS Inst. Inc., Cary, NC, 2009). Group mean comparisons were conducted using Duncan means and were considered to be significant at P < 0.05 based on the least significant differences (LSD) from one-way analysis of variance (ANOVA) with alpha = 0.05. Correlations were made using Pearson's correlation values with P < 0.05.

Porcine kidney DPP-IV [2] = target: T1, Porcine kidney DPP-IV; test: Inhibitory kinetics study, Lineweaver-Burk plot, Gly-Pro-AMC substrate; type: biochemical; settings: for Ki: Gly-Pro-AMC 0–60 μM, read-out: K i (enzyme-inhibition constant, experimental)
Procedure: Each concentration was evaluated in the presence of various concentrations of Gly-Pro-AMC (0–60 μM). DPP-IV activity was measured using the DPP-IV Glo Protease Assay as mentioned above. The inhibition pattern was evaluated utilizing the Lineweaver-Burk plot. Enzyme-inhibition constant K i was determined by plotting the reciprocal of the initial luminescence versus the reciprocal of the initial substrate concentration.
Initial rates of the reaction were measured, and the results are expressed as a Lineweaver-Burk plot. Data are expressed as the mean of four independent experiments.

[3] = pure compounds, concentration based on molecular mass, means ± SEM, read-out: IC50, DPP-IV inhibition

| SMILES | IC50 (Porcine kidney DPP-IV [1]; [3]) | DPP-IV inhibitory activity (in words) (Porcine kidney DPP-IV [1]) | further results |
| --- | --- | --- | --- |
| O.Oc1cc(O)c2c(c1)O[C@H](c1ccc(O)c(O)c1)[C@@H](O)C2 [catechin] | – | did not have DPP-IV inhibitory activity | – |
| C[C@@H]1O[C@@H](OC[C@H]2O[C@@H](Oc3c(-c4ccc(O)c(O)c4)oc4cc(O)cc(O)c4c3=O)[C@H](O)[C@@H](O)[C@@H]2O)[C@H](O)[C@H](O)[C@H]1O [rutin, rutin hydrate] | – | did not have DPP-IV inhibitory activity; also recorded: no DPP-IV inhibitory effect | – |
| O=C(O)c1cc(O)c(O)c(O)c1 [Gallic acid, gallic acid] | 4650 ± 990 nM | – | – |
| CC1(C)O[C@H]2CC(=O)OC[C@]23[C@H]2CC[C@@]4(C)[C@H](c5ccoc5)OC(=O)[C@H]5O[C@]54[C@]2(C)C(=O)C[C@@H]13 [limonin] | – | did not have DPP-IV inhibitory activity | – |
| C[C@@H]1O[C@@H](OC[C@H]2O[C@@H](Oc3cc(O)c4c(c3)O[C@H](c3ccc(O)cc3)CC4=O)[C@H](O)[C@@H](O)[C@@H]2O)[C@H](O)[C@H](O)[C@H]1O [narirutin] | – | did not have DPP-IV inhibitory activity; also recorded: no DPP-IV inhibitory effect | – |
| C[C@@H]1O[C@@H](O[C@H]2[C@H](Oc3cc(O)c4c(c3)O[C@H](c3ccc(O)cc3)CC4=O)O[C@H](CO)[C@@H](O)[C@@H]2O)[C@H](O)[C@H](O)[C@H]1O [naringin] | – | did not have DPP-IV inhibitory activity; also recorded: no DPP-IV inhibitory effect | – |
| COc1ccc([C@@H]2CC(=O)c3c(O)cc(O[C@@H]4O[C@H](CO)[C@@H](O)[C@H](O)[C@H]4O[C@@H]4O[C@@H](C)[C@H](O)[C@@H](O)[C@H]4O)cc3O2)cc1O [neohesperidin] | – | did not have DPP-IV inhibitory activity; also recorded: no DPP-IV inhibitory effect | – |
| O=C(O[C@@H]1Cc2c(O)cc(O)cc2O[C@@H]1c1cc(O)c(O)c(O)c1)c1cc(O)c(O)c(O)c1 [EGCG, epigallocatechin gallate] | 10200 ± 750 nM | – | – |
| O=C(/C=C/c1ccc(O)c(O)c1)O[C@@H]1C[C@](O)(C(=O)O)C[C@@H](O)[C@H]1O [chlorogenic acid] | – | did not have DPP-IV inhibitory activity | – |
| O=c1cc(-c2ccccc2)oc2ccccc12 [Flavone, flavone] | 170 ± 10 nM | – | Inhibition manner (Porcine kidney DPP-IV [2]): competitive; Ki (Porcine kidney DPP-IV [2]): 18600 ± 300 nM |
| Oc1cc(O)c2c(c1)O[C@H](c1ccc(O)c(O)c1)[C@H](O)C2 [epicatechin] | – | did not have DPP-IV inhibitory activity | – |
| O=c1c(-c2ccc(O)cc2)coc2cc(O[C@@H]3O[C@H](CO)[C@@H](O)[C@H](O)[C@H]3O)cc(O)c12 [genistin] | – | did not have DPP-IV inhibitory activity | – |
| O=C(O)/C=C/c1ccc(O)c(O)c1 [Caffeic acid, caffeic acid] | 3370 ± 140 nM | – | – |
| COc1ccc([C@@H]2CC(=O)c3c(O)cc(O[C@@H]4O[C@H](CO[C@@H]5O[C@@H](C)[C@H](O)[C@@H](O)[C@H]5O)[C@@H](O)[C@H](O)[C@H]4O)cc3O2)cc1O [hesperidin] | – | did not have DPP-IV inhibitory activity; also recorded: no DPP-IV inhibitory effect | – |
| O=C(O)c1ccc(O)c(O)c1 [protocatechuic acid] | – | did not have DPP-IV inhibitory activity | – |
| COc1cc(-c2[o+]c3cc(O)cc(O)c3cc2O)cc(OC)c1O [Malvidin, malvidin] | – | – | IC50 (Porcine kidney DPP-IV [1]): 740 ± 160 nM |

The next lines start with results.

| IC50 (Porcine kidney DPP-IV [1]; [3]) | SMILES | DPP-IV inhibitory activity (in words) (Porcine kidney DPP-IV [1]) | further results |
| --- | --- | --- | --- |
| 120 ± 10 nM | O=c1cc(-c2ccc(O)c(O)c2)oc2cc(O)cc(O)c12 [Luteolin, luteolin] | – | Inhibition manner (Porcine kidney DPP-IV [2]): noncompetitively; also recorded: noncompetitive; Ki (Porcine kidney DPP-IV [2]): 4900 ± 200 nM |
| 420 ± 90 nM | OC[C@H]1O[C@@H](Oc2cc3c(O)cc(O)cc3[o+]c2-c2ccc(O)c(O)c2)[C@H](O)[C@@H](O)[C@@H]1O [Cyanidin-3-glucoside, cyanidin-3-glucoside] | – | – |
| 0.6 ± 0.4 nM | Oc1ccc(/C=C/c2cc(O)cc(O)c2)cc1 [Resveratrol, resveratrol] | – | Inhibition manner (Porcine kidney DPP-IV [2]): competitive; Ki (Porcine kidney DPP-IV [2]): 200 ± 10 nM |
| 2920 ± 680 nM | O=c1c(O)c(-c2ccc(O)c(O)c2)oc2cc(O)cc(O)c12 [Quercetin, quercetin] | – | – |
| 1410 ± 250 nM | Oc1cc(O)c2cc(O)c(-c3ccc(O)c(O)c3)[o+]c2c1 [Cyanidin, cyanidin] | – | – |
| 480 ± 40 nM | O=c1c(-c2ccc(O)cc2)coc2cc(O)cc(O)c12 [Genistein, genistein] | – | – |
| 140 ± 20 nM | O=c1cc(-c2ccc(O)cc2)oc2cc(O)cc(O)c12 [Apigenin, apigenin] | – | Inhibition manner (Porcine kidney DPP-IV [2]): noncompetitively; also recorded: noncompetitive; Ki (Porcine kidney DPP-IV [2]): 7900 ± 1400 nM |
| 240 ± 30 nM | O=C1C[C@@H](c2ccc(O)cc2)Oc2cc(O)cc(O)c21 [Naringenin, naringenin] | – | – |
| 280 ± 70 nM | COc1ccc([C@@H]2CC(=O)c3c(O)cc(O)cc3O2)cc1O [Hesperetin, hesperetin] | – | – |
| 10360 ± 90 nM | C[C@@H]1O[C@@H](OC[C@H]2O[C@@H](Oc3cc(O)c4c(c3)O[C@H](c3ccc(O)c(O)c3)CC4=O)[C@H](O)[C@@H](O)[C@@H]2O)[C@H](O)[C@H](O)[C@H]1O [Eriocitrin, eriocitrin] | – | – |
| 490 ± 20 nM | O=c1c(O)c(-c2ccc(O)cc2)oc2cc(O)cc(O)c12 [Kaempferol, kaempferol] | – | – |
